Laboratory results from US5302587A, “Platinum (II) complex and agent for treating malignant tumor” (Toray Industries, Inc., priority 1989, dated 1994).

What was measured:
[1] = test system: mouse leukemia cells L1210; test: Anti-tumor activity in L1210-transplanted mice (Reference Example 3, Table 4); assay type: in vivo; settings: 0.05% Tween 80, L1210-transplanted CDF1 mice
Method: The Samples A, B and C synthesized in Reference Examples 1 and 2 were evaluated for their anti-tumor activities by the following method:
In the abdominal cavities of CDFl mice (male, 6-week old, 6-10 mice/group), 105 mouse leukemia cells L1210 subcultured in DBA/2 mice were transplanted. Taking the day of transplantation as Day 0, the test drugs were separately administered intraperitoneally to the mice on Day 1, Day 5 and Day 9, totaling 3 times. Each drug was administered after dissolving or suspending it in 0.05% Tween 80 solution. The evaluation of the effectiveness was performed based on the T/C value which is obtained by the following equation as well as the number of survived mice on Day 30. [formula]

[2] = test system: Cisplatin-resistant mouse leukemia L1210/CDDP cells; test: Anti-tumor activity in cisplatin-resistant L1210-transplanted mice (Table 2); assay type: in vivo; settings: L1210/CDDP-transplanted CDF1 mice
Method: In the abdominal cavities of CDFl mice (male, 6-week old, 5-10 mice/group, 105 mouse leukemia L1210 cells passaged in DBA/2 mice were transplanted. Defining the day of transplantation as Day 0, the compounds 1-5 of the present invention were separately administered intraperitoneally to mice on Day 1, Day 5 and Day 9, totaling 3 times. Each compound was administered after dissolving it in distilled water for injection. The evaluation of the anti-tumor activities of the platinum complexes against the L1210-transplanted mice was performed by T/C value which is obtained by the following equation: [formula]
In the abdominal cavities of CDFl mice (male, 6-week old, 5-10 mice/group), 105 Cisplatin-resistant mouse leukemia L1210/CDDP cells passaged in DBA/2 mice were transplanted. Defining the day of transplantation as Day 0, the compounds of the present invention and control drugs were separately administered intraperitoneally to mice on Day 1, Day 5 and Day 9, totaling 3 times.
The compounds of the present invention and carboplatin were administered after dissolving them in distilled water for injection and cisplatin was used after dissolving it in physiological saline for injection. The effectiveness of the compounds was evaluated by using the T/C value as in Example 7.

[3] = 10 mg/kg i.p. on Day 1, 5 and 9
[4] = 25 mg/kg i.p. on Day 1, 5 and 9
[5] = 50 mg/kg i.p. on Day 1, 5 and 9
[6] = 100 mg/kg i.p. on Day 1, 5 and 9
[7] = 200 mg/kg i.p. on Day 1, 5 and 9
[8] = 2.5 mg/kg i.p. on Day 1, 5 and 9
[9] = 7.5 mg/kg i.p. on Day 1, 5 and 9

SMILES | Number of Survived Mice (Day 30) ([1]; 1 mg/kg i.p. on Day 1, 5 and 9) | Number of Survived Mice (Day 30) [1, 3] | Survived Days (Mean ± Standard Deviation) [1, 3] [days] | T/C [1, 3] [%] | Number of Survived Mice (Day 30) [1, 4] | Survived Days (Mean ± Standard Deviation) [1, 4] [days] | T/C [1, 4] [%] | Number of Survived Mice (Day 30) [1, 5] | Survived Days (Mean ± Standard Deviation) [1, 5] [days] | T/C [1, 5] [%] | Number of Survived Mice (Day 30) [1, 6] | Survived Days (Mean ± Standard Deviation) [1, 6] [days] | T/C [1, 6] [%] | Number of Survived Mice (Day 30) [1, 7] | Survived Days (Mean ± Standard Deviation) [1, 7] [days] | T/C [1, 7] [%] | Number of Survived Mice (Day 30) [2, 4] | Survived Days (Mean ± Standard Deviation) [2, 4] [days] | T/C [2, 4] [%] | further results
CC(=O)[C-]1C(=O)CC(C)OC1=O.CC(=O)[C-]1C(=O)CC(C)OC1=O.N[C@@H]1CCCC[C@H]1N.O.[Pt+2] (relative stereo) [Sample A, [Pt(II)(trans-l-1,2-diaminocyclohexane)](3-acetyl-6-methyltetrahydropyran-2,4-dione)2.H2 O] | 0/6 | 0/6 | 11.5 ± 1.2 | 137 | 0/6 | 14.2 ± 3.2 | 169 | 0/6 | 17.0 ± 3.0 | 202 | 0/6 | 15.5 ± 5.0 | 185 | 0/6 | 6.0 | 71 | – | – | – | –
CC(=O)[C-]1C(=O)CCOC1=O.CC(=O)[C-]1C(=O)CCOC1=O.N[C@@H]1CCCC[C@H]1N.O.[Pt+2] (relative stereo) [Sample C, [Pt(II)(trans-l-1,2-diaminocyclohexane)](3-acetyltetrahydropyran-2,4-dione)2.H2 O] | 0/6 | 0/6 | 9.8 ± 1.6 | 117 | 0/6 | 9.5 ± 0.5 | 113 | 0/6 | 8.7 ± 2.2 | 104 | 0/6 | 8.3 ± 0.8 | 99 | 0/6 | 6.2 ± 1.5 | 74 | – | – | – | Survived Days (Mean ± Standard Deviation) ([1]; 1 mg/kg i.p. on Day 1, 5 and 9): 8.7 ± 0.8 days; T/C ([1]; 1 mg/kg i.p. on Day 1, 5 and 9): 104%
N.N.O=C([O-])C1(C(=O)[O-])CCC1.[Pt+2] [Carboplatin] | – | – | – | – | – | – | – | – | – | – | – | – | – | – | – | – | 0/6 | 9.0 ± 1.1 | 99 | Number of Survived Mice (Day 30) [2, 5]: 0/6; Survived Days (Mean ± Standard Deviation) [2, 5]: 9.7 ± 0.8 days; T/C [2, 5]: 107%; Number of Survived Mice (Day 30) [2, 6]: 0/6; Survived Days (Mean ± Standard Deviation) [2, 6]: 9.3 ± 0.8 days; T/C [2, 6]: 102%; Number of Survived Mice (Day 30) [2, 7]: 0/6; Survived Days (Mean ± Standard Deviation) [2, 7]: 7.3 ± 1.5 days; T/C [2, 7]: 80%
N.N.[Cl][Pt][Cl] [Cisplatin] | – | – | – | – | – | – | – | – | – | – | – | – | – | – | – | – | 0/6 | 7.2 ± 1.6 | 79 | Number of Survived Mice (Day 30) [2, 8]: 0/6; Survived Days (Mean ± Standard Deviation) [2, 8]: 9.3 ± 1.0 days; T/C [2, 8]: 102%; Number of Survived Mice (Day 30) ([2]; 5 mg/kg i.p. on Day 1, 5 and 9): 0/6; Survived Days (Mean ± Standard Deviation) ([2]; 5 mg/kg i.p. on Day 1, 5 and 9): 8.3 ± 0.5 days; T/C ([2]; 5 mg/kg i.p. on Day 1, 5 and 9): 91%; Number of Survived Mice (Day 30) [2, 3]: 0/6; Survived Days (Mean ± Standard Deviation) [2, 3]: 8.7 ± 0.8 days; T/C [2, 3]: 96%; Number of Survived Mice (Day 30) [1, 8]: 0/6; Survived Days (Mean ± Standard Deviation) [1, 8]: 13.0 ± 2.3 days; T/C [1, 8]: 155%; Number of Survived Mice (Day 30) ([1]; 5 mg/kg i.p. on Day 1, 5 and 9): 0/5; Survived Days (Mean ± Standard Deviation) ([1]; 5 mg/kg i.p. on Day 1, 5 and 9): 13.8 ± 1.1 days; T/C ([1]; 5 mg/kg i.p. on Day 1, 5 and 9): 164%; Number of Survived Mice (Day 30) [1, 9]: 0/6; Survived Days (Mean ± Standard Deviation) [1, 9]: 18.3 ± 6.2 days; T/C [1, 9]: 218%
CC(=O)[C-]1C(=O)CC(C)OC1=O.CC(=O)[C-]1C(=O)CC(C)OC1=O.N[C@@H]1CCCC[C@H]1N.O.[Pt+2] (relative stereo) [Sample B, [Pt(II)(trans-l-1,2-diaminocyclohexane)](3-acetyl-6-methyltetrahydropyran-2,4-dione)2.H2 O] | – | – | – | – | 0/6 | 8.5 ± 0.5 | 101 | 0/6 | 8.8 ± 0.8 | 105 | 0/6 | 9.2 ± 1.5 | 110 | 0/6 | 9.5 ± 2.3 | 113 | – | – | – | –
